This note sets out measurements from patent US5219884A, “Immunosuppressant” (Taito Co., Ltd., priority 1990, dated 1993).

The subject of test [1] is interleukin 1 (IL1) response of mouse thymocytes. The experiment in a line: suppression of interleukin 1 (IL1) response of mouse thymocytes. The class given is cell-based. The conditions noted are these: PHA + IL1. As for the experimental part: The thymus was resected from 7-week-old male C3H/HeN mice, and single cell suspension was prepared using the serum-free RPMI1640 culture medium. After three times washing with the medium, the cells were suspended to a concentration of 1.5×10^7 cells/ml in the RPMI1640 culture medium supplemented with 20% fetal calf serum, 5×10^-5 M 2-mercaptoethanol, 2×10^-3 M L-glutamine, 1×10^-3 M sodium pyruvate, 1 μg/ml of phytohemagglutinin (PHA, Wellcome Co., HA16/17) and 2 units/ml of human ultrapure interleukin 1 (Genzyme Co., GUPi-1). One hundred μl of this cell suspension and 100 μl of the solution containing ISP-I were mixed in each well of the 96-well flat-bottomed microculture plate, cultured at 37° C. in an atmosphere of 5% carbon dioxide for 66 hours, and cultured for further 6 hours after addition of 0.5 μCi/well of ^3 H-thymidine. After termination of the culture, the cells in each well were harvested onto a filter by a multiple cell harvester, and the radioactivity incorporated into the cells was measured by liquid scintillation method using a toluene-base scintillator.
In the table, SD means standard deviation. The percent suppression (%) was calculated by the following formulation. [formula]

Test [2] concerns interleukin 2 receptor (IL-2R, Tac) expression in mouse allogenic MLC. The test is described as follows: suppression of induction of IL-2R (Tac) expression in mouse allogenic MLC. The class given is cell-based. The procedure: Mouse allogenic MLC and PHA-stimulated mouse spleen cells were prepared in the same as in Experimental Example 3.
The IL-2R (Tac) induced in mouse allogenic MLC and PHA-stimulated mouse spleen cells was assayed as follows:
After culturing the mouse allogenic MLC and the PHA-stimulated mouse spleen cells at 37° C. in an atmosphere of 5% carbon dioxide for 24 hours, the cells were collected by centrifugation (1000 rpm, 5 minutes, 4° C.), and about 10^6 cells were cultured in 10 μl of phosphate buffered saline (PBS), to which 0.02% sodium azide-containing rat anti-mouse IL-2R monoclonal antibody (manufactured by Boehringer Co., 40 μg/ml) had been added, for 30 minutes with ice-cooling. After washing three times with ice-cooled PBS containing 0.02% sodium azide, 50 μl of fluorescein isothiocyanate (FITC)-labeled goat anti-rat immunoglobulin G antibody was added and cultured for 30 minutes with ice-cooling. To the cell pellet after washing three times with ice-cooled 0.02% sodium azide-added PBS was added, a few drops of PBS containing 0.2% sodium azide and 50% glycerin. Prepared specimens on non-fluorescent slide glasses were made and the IL-2R positive cells were counted under a fluorescent microscope to determine the ratio of numbers of IL-2R positive cells in the total numbers of the cells.

The subject of test [3] is IL3-dependent mouse cell line FDC-P2. The experiment in a line: suppression of IL3-induced proliferation of FDC-P2. The test is classed as cell-based. The note with it: for inhibition at 0.001 µg/mL / inhibition at 0.01 µg/mL / inhibition at 0.1 µg/mL / inhibition at 1 µg/mL / inhibition at 10 µg/mL: Mus musculus, 24 h. As for the experimental part: IL3-dependent mouse cell line FDC-P2 cells were suspended in the RPMI1640 culture medium supplemented with 10% FCS to the concentration of 2×10^5 cells/ml. One hundred μl of the suspension and 50 μl of the supernatant of the culture of mouse luekemia cells WEHI3 containing IL3 were added to each well of 96-well microculture plates in which 100 μl of the test substance had been placed. After culturing at 37° C. in an atmosphere of 5% carbon dioxide for 20 hours, 0.5 μCi/well of ^3 H-thymidine was added, and cultured for 4 hours under the same conditions. After termination of the culture, the cells were harvested by a cell harvester, and the radioactivity incorporated into the cells was determined by a liquid scintillation counter, and was used as an index of the IL3-dependent proliferation.

The test system of test [4] is allo-reactive cytotoxic T cells (EL4 target cells). The experiment in a line: suppression of allo-reactive cytotoxic T cells induced by immunization of mouse with allogenic cells. The test is classed as in vivo. The note with it: 0.1 mg/kg/day i.p., 6 times. The procedure:
Male BALB/c mice were immunized with spleen cells of C57BL/6 mice (5×10^7 cells/mouse, intraperitoneal administration), and ISP-I in Example 1 was administered intraperitoneally 6 times at the doses of 0.1 mg/kg/day from the next day of immunization. Eight days after immunization, the spleen was resected to prepare effector cells, with which the ^51 Cr release test was carried out as in Experimental Example 3, using EL4 cells as the target cells to measure the cytotoxic activity.

For `CCCCCCC(=O)CCCCCC/C=C/CC(O)C(O)C(N)(CO)C(=O)O` (centres unmarked) [Example 1], in test [1] (Mus musculus, Thymocyte, 72 h, 0.2 μg/ml), the inhibition at 0.2 µg/mL turned out to be 83.9%. In test [1] (Mus musculus, Thymocyte, 72 h, 2 μg/ml), the inhibition at 2 µg/mL is 91.8%. Besides, the 3H-thymidine uptake in test [1] (0.2 μg/ml) is on record as 4646 ± 826 cpm ± SD; in test [1] (2 μg/ml), 3973 ± 39 cpm ± SD; in test [3] (0.001 μg/ml) it was 6858 cpm; in test [3] (0.01 μg/ml) it was 6572 cpm; in test [3] (0.1 μg/ml), 5203 cpm; in test [3] (1 μg/ml) it was 5029 cpm. In test [3] (10 μg/ml), this compound had a 3H-thymidine uptake of 2750 cpm. For the same compound, the IL-2R positive cells in test [2] (0.001 μg/ml) is 22.4%; in test [2] (0.01 μg/ml), 17.6%; in test [2] (0.1 μg/ml) it was 13.1%; in test [2] (1 μg/ml) it was 11.4%. Besides, the inhibition at 0.001 µg/mL amounted to 8.2% in test [2] (Mus musculus, 24 h, 0.001 μg/ml) and 21.5% in test [3] (0.001 μg/ml). In addition, the inhibition at 0.01 µg/mL was 27.9% in test [2] (Mus musculus, 24 h, 0.01 μg/ml) and 25.7% in test [3] (0.01 μg/ml). Moreover, the inhibition at 0.1 µg/mL in test [2] (Mus musculus, 24 h, 0.1 μg/ml) was 44.3%; in test [3] (0.1 μg/ml), 45.9%. The inhibition at 1 µg/mL in test [2] (Mus musculus, 24 h, 1 μg/ml) was determined as 53.3%; in test [3] (1 μg/ml), 48.5%. This compound showed an inhibition at 10 µg/mL in test [3] (10 μg/ml) of 82.1%. The “Amount of 51Cr release” value in test [4] (effector:target 25:1) was 1046 cpm; in test [4] (effector:target 50:1), 1258 cpm; in test [4] (effector:target 100:1) it was 1543 cpm. In addition, the Cytotoxic activity in test [4] (effector:target 25:1) is reported as 5%; in test [4] (effector:target 50:1), 8%; in test [4] (effector:target 100:1), 13%.
In test [3] (0.001 μg/ml), `CCCCCCC(=O)CCCCCC/C=C/CC1OC(=O)C(N)(CO)C1O` (centres unmarked) [Example 4] came in with a 3H-thymidine uptake of 7754 cpm and an inhibition at 0.001 µg/mL of 8.3%. In test [3] (0.01 μg/ml), this compound came in with a 3H-thymidine uptake of 6557 cpm and an inhibition at 0.01 µg/mL of 25.9%. Further, in test [3] (0.1 μg/ml), the 3H-thymidine uptake is reported as 5861 cpm and the inhibition at 0.1 µg/mL was found to be 36.2%. In test [3] (1 μg/ml), this compound returned a 3H-thymidine uptake of 4922 cpm and an inhibition at 1 µg/mL of 50.1%. In test [3] (10 μg/ml), this compound displayed a 3H-thymidine uptake of 2902 cpm and an inhibition at 10 µg/mL of 79.9%.

By inhibition is commonly meant the drop in the measured response relative to a control, in per cent.
